Measurements: the NIST ThermoML archive (doi:10.1016/j.jct.2004.08.006)
Numbers after ± are expanded uncertainties.

Details: 298.15 K; 101.33 kPa; Crystal

O=C(O)c1cnccn1 [2-pyrazinecarboxylic acid]
mass density: 1200 ± 200 kg/m3

NC(=O)c1cnccn1 [pyrazinecarboxamide]
mass density: 1100 ± 200 kg/m3
